# Source: patent US20240251801A1, “COMPOSITIONS AND METHODS FOR IMPROVING PLANT HEALTH AND CONTROLLING PLANT DISEASE” (AgBiome, Inc., priority 2021, published 2024)
# Tests used:
# Assay type in all cases: in vivo
# Podosphaera xanthii [1] = assay: Squash leaf disc assay with wettable powder formulations, control of powdery mildew; settings: squash leaf discs, 150 μL, tebuconazole 10 ppm as control
# Method: For the tray drying method, 829 grams of cell paste obtained from a liquid culture of ATP15329 was mixed with 18.24 g of glycerol and 72.95 g of microcel E using a food processor. Half of the cell paste was dried at 40° C. to a water activity of less than 0.30, at which time it contained 3.53E11 CFU/g. The other half was dried at 25° C. and 50% RH to a water activity of less than 0.6, at which time it contained 4.75E11 CFU/g. The dried powder formulation was stored in heat sealed mylar pouches at 4° C.
# For the spray drying method, 200 grams of cell paste obtained from a liquid culture of ATP15329 was mixed with 22 g of skim milk powder using an emulsion blender. This material was spray dried at outlet temperature of 70° C., at which time it contained 7.86E10 CFU/g. The dried powder formulation was stored in heat sealed mylar pouches at 4° C.
# This evaluation followed the protocol used in Example 3. Briefly, leaf disks were each sprayed with 150 μL of different formulations of the bacterial strain AIP015329, tebuconazole 10 ppm (fungicide control) on the adaxial surface 24 hours before inoculation with the fungal pathogen. After treatment, leaf disks were incubated in the dark for 24 hours at 23° C.
# Leaf disks were inoculated on the treated leaf surface by spraying a conidial suspension (1×10^6 conidia/ml of sterile distilled water) of P. xanthii. Inoculated and non-inoculated/not treated controls were added. Treatments were placed into sealed clear plastic boxes and incubated for six days at 25° C. with a relative humidity of 80% and a 12 h photoperiod. Each treatment was rated on a disease severity scale from 0 to 4, with 0 being no symptoms and 4 being greater than 50% of the leaf disk covered with colonies. The number of powdery mildew colonies were also recorded for each treatment. This experiment was run once, with each treatment replicated three times. Data was analyzed in SAS JMP version 14.0.
# Podosphaera xanthii [2] = assay: Squash leaf disc assay, control of powdery mildew on cucurbits; settings: squash leaf discs, bacterial suspension 200 μL, tebuconazole 10 ppm
# Method: (§1) For detached-leaf assays performed in the following examples, bacterial strains stored in a freezer (−80° C.) were each streaked onto Luria Bertani (LB) agar (25 g LB broth and 15 g agar per liter of deionized water) in an 8.5-cm diameter plastic plate. A single colony from the plate was picked and placed in 50 ml of either LB liquid broth or a liquid broth consisting of NaCl (5 g), tryptone (10 g), nutrient broth (8 g), CaCl2 (0.14 mM), MgCl2·6H2O (0.2 mM), and MnCl2·4H2O (0.01 mM) per liter of deionized water in a 250-ml flask. Calcium chloride (CaCl2), MgCl2, and MnCl2 were filtered sterilized using 0.22 μm vacuum filter and were then added to NaCl, tryptone, nutrient broth (which were autoclaved together). Cultures were harvested after 48 h by pelleting cells and re-suspending to original volume in sterile H2O. Colony forming units (CFU/mL) were determined using standard dilution plate count method, and plates were inspected for signs of contamination. […]
# Leaf disks were inoculated on the treated leaf surface by spraying a conidial suspension (1×10^6 conidia/ml of sterile distilled water) of P. xanthii (an isolate obtained from Dr. McGrath laboratory, Cornell University). […] The number of powdery mildew colonies were also recorded for each treatment. […] Data was analyzed in SAS JMP version 14.0.
# Mycosphaerella fijiensis = assay: Grand Nain (Musa) leaf piece assay, control of black sigatoka; settings: Grand Nain leaf pieces, strain 1×10^8 CFU/ml, mancozeb 10 ppm
# Method: as §1, with “contamination. Sterile distilled water was added to achieve a final concentration needed in detached-leaf or growth chamber strain evaluations.” for “contamination.”
# Data recorded were the most progressed stage on inoculated leaves, 3 to 4 weeks after inoculation (Stover 1986). Data were analyzed using analysis of variance (ANOVA) in PROC GLM of SAS (version 9.4; SAS Institute Inc., Cary, NC) and significant differences (P<0.05) were observed among treatments.
# [3] = system: Colletotrichum sublineolum; assay: Detached sorghum leaf piece assay, control of anthracnose; settings: sorghum leaf pieces, strain 1×10^8 CFU/ml, pyraclostrobin 10 ppm
# Method: as §1, with “contamination. Sterile distilled water was added to achieve a final concentration needed in detached-leaf or growth chamber strain evaluations.” for “contamination.”
# Seven days post inoculation, the leaf pieces were assessed for anthracnose severity on a scale of 0-4 according to Prom et al., 2016 (Plant Path J. 15(1): 11-16), with few modifications. […] Data was analyzed using analysis of variance (ANOVA) in JMP® (version 14.0.0; SAS Institute Inc., Cary, NC). […]
molecule,measurement,setting,value
"CC(C)(C)C(O)(CCc1ccc(Cl)cc1)Cn1cncn1 (stereo not drawn) [Tebuconazole, tebuconazole]",Disease Control (%) Spray dry,Podosphaera xanthii [1]; spray dried formulation of the strain,96.0 (a) %
same,Disease Control (%) Tray dry Dried at 25° C.,Podosphaera xanthii [1]; tray dried formulation dried at 25° C.,96.0 (a) %
same,Disease Control (%) Tray dry Dried at 40° C.,Podosphaera xanthii [1]; tray dried formulation dried at 40° C.,96.0 (a) %
same,Disease Control (%) Confirmation,Podosphaera xanthii [2]; confirmation,75.0 (a) %
same,Disease Control (%) Primary Screen,"Podosphaera xanthii [2]; treated 24 h before inoculation, six days incubation",87.5 (a) %
mancozeb,Disease Control (%) Primary Screen,Mycosphaerella fijiensis; 3 to 4 weeks after inoculation,92.3 (a) %
same,Disease Control (%) Confirmation,Mycosphaerella fijiensis; confirmation,81.0 (a) %
COC(=O)N(OC)c1ccccc1COc1ccn(-c2ccc(Cl)cc2)n1 [Pyraclostrobin],Disease Control (%) Confirmation,[3]; confirmation screen with freshly grown culture,79.2 (a) %
same,Disease Control (%) Primary Screen,"[3]; treated 24 h before inoculation, rated 7 days post inoculation",95.2 (a) %
